This note sets out measurements from patent US11084800B2 (Achillion Pharmaceuticals, Inc., priority 2017, dated 2021).

Each structure is given as a SMILES string. pIC50: −log10 of the molar value. Where only a bound is given, the exact number is not on record here.

The target of the assay is Human Factor D (Homo sapiens (Human), UniProt P00746). Kind of assay: Human Factor D Assay. The format is biochemical. Conditions: Factor D inhibition, assay of Example 10; read-out: IC5 (Stars). In short, it runs like this: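 Thioester substrate Z-L-Lys-SBz (100 μM) with Ellman's reagent DTNB (100 μM) reports activity of 80 nM human serum-derived enzyme, kinetically at 405 nm over 30 min. Compound preincubated 5 min, room temperature, pH 7.5 Tris/1 M NaCl; IC50 by nonlinear fit of rates.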
Human Factor D, sequence (P00746 26-253): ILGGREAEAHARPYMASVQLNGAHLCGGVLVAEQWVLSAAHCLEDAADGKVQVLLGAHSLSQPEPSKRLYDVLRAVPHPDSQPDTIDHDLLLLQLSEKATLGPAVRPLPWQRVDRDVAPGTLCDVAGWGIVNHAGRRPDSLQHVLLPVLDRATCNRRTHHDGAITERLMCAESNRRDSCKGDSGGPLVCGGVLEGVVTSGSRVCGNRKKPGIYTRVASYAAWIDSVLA
On to `CC(=O)c1nn(CC(=O)N2[C@H](C(=O)Nc3cccn(-c4ccccn4)c3=O)C[C@@]3(C)C[C@@H]23)c2c(C)cc(-c3cnc(C)nc3)cc12` [Compound 460, (1R,3S,5R)-2-{2-[3-Acetyl-7-methyl-5-(2-methylpyrimidin-5-yl)indazol-1-yl]acetyl}-5-methyl-N-{2-oxo-[1,2′-bipyridine]-3-yl}-2-azabicyclo[3.1.0]hexane-3-carboxamide], for which the pIC50 is more than 6.00.

As for `CC(=O)c1nn(CC(=O)N2[C@H](C(=O)Nc3cc(Br)ncc3F)C[C@@]3(C)C[C@@H]23)c2cnc(-c3cnc(C)nc3)cc12` [Compound 461, (1R,3S,5R)-2-(2-(3-acetyl-5-(2-methylpyrimidin-5-yl)-1H-pyrazolo[3,4-c]pyridin-1-yl)acetyl)-N-(2-bromo-5-fluoropyridin-4-yl)-5-methyl-2-azabicyclo[3.1.0]hexane-3-carboxamide], the pIC50 was 5.00 to 6.00.

Turning to `CC(=O)c1nn(CC(=O)N2[C@H](C(=O)N[C@H](Cc3ccccc3)C(=O)O)C[C@@]3(C)C[C@@H]23)c2c(C)cc(-c3cnc(C)nc3)cc12` [Compound 462, ((1R,3S,5R)-2-(2-(3-acetyl-7-methyl-5-(2-methylpyrimidin-5-yl)-1H-indazol-1-yl)acetyl)-5-methyl-2-azabicyclo[3.1.0]hexane-3-carbonyl)-D-phenylalanine], the pIC50 is 5.00 to 6.00.

For `CC(=O)c1nn(CC(=O)N2[C@H](C(=O)N[C@H](CC(C)C)C(=O)O)C[C@@]3(C)C[C@@H]23)c2c(C)cc(-c3cnc(C)nc3)cc12` [Compound 464, ((1R,3S,5R)-2-(2-(3-acetyl-7-methyl-5-(2-methylpyrimidin-5-yl)-1H-indazol-1-yl)acetyl)-5-methyl-2-azabicyclo[3.1.0]hexane-3-carbonyl)-D-leucine], the pIC50 is 5.00 to 6.00.

With `Cc1ncc(-c2ccc3c(c2)c(C(=O)C(F)(F)F)cn3CC(=O)N2[C@H](C(=O)Nc3nc(Br)ccc3C)C[C@@]3(C)C[C@@H]23)cn1` [Compound 465, (1R,3S,5R)-N-(6-bromo-3-methylpyridin-2-yl)-5-methyl-2-(2-(5-(2-methylpyrimidin-5-yl)-3-(2,2,2-trifluoroacetyl)-1H-indol-1-yl)acetyl)-2-azabicyclo[3.1.0]hexane-3-carboxamide], the pIC50 was more than 6.00.

With `CC(=O)c1nn(CC(=O)N2[C@H](C(=O)Nc3nc(Br)ccc3C)C[C@@]3(C)C[C@@H]23)c2cc(F)c(-c3cnc(C)nc3)cc12` [Compound 466, (1R,3S,5R)-2-(2-(3-acetyl-6-fluoro-5-(2-methylpyrimidin-5-yl)-1H-indazol-1-yl)acetyl)-N-(6-bromo-3-methylpyridin-2-yl)-5-methyl-2-azabicyclo[3.1.0]hexane-3-carboxamide], the pIC50 was more than 6.00.

In the case of `COC(=O)c1nn(CC(=O)N2[C@H](C(=O)Nc3nc(Br)ccc3C)C[C@@]3(C)C[C@@H]23)c2ccc(-c3cnc(C)nc3)cc12` [Compound 467, Methyl 1-{2-[(1R,3S,5R)-3-[(6-bromo-3-methylpyridin-2-yl)carbamoyl]-5-methyl-2-azabicyclo[3.1.0]hexan-2-yl]-2-oxoethyl}-5-(2-methylpyrimidin-5-yl)indazole-3-carboxylate], the pIC50 was more than 6.00.

In the case of `Cc1ncc(-c2ccc3c(c2)c(C(=O)O)nn3CC(=O)N2[C@H](C(=O)Nc3nc(Br)ccc3C)C[C@@]3(C)C[C@@H]23)cn1` [Compound 469, 1-{2-[(1R,3S,5R)-3-[(6-Bromo-3-methylpyridin-2-yl)carbamoyl]-5-methyl-2-azabicyclo[3.1.0]hexan-2-yl]-2-oxoethyl}-5-(2-methylpyrimidin-5-yl)indazole-3-carboxylic Acid], the pIC50 is less than 5.00.

For the compound `Cc1ncc(-c2cc3c(C(=O)C(F)(F)F)cn(CC(=O)N4[C@H](C(=O)Nc5nc(Br)ccc5C)C[C@@]5(C)C[C@@H]45)c3cn2)cn1` [Compound 470, (1R,3S,5R)-N-(6-bromo-3-methylpyridin-2-yl)-5-methyl-2-(2-(5-(2-methylpyrimidin-5-yl)-3-(2,2,2-trifluoroacetyl)-1H-pyrrolo[2,3-c]pyridin-1-yl)acetyl)-2-azabicyclo[3.1.0]hexane-3-carboxamide], the pIC50 was more than 6.00.
